Values after ≈ are worked out from the molar mass of the structure shown.
What was measured:
Botrytis cinerea [1] = experiment: Antifungal activity against Botryotinia fuckeliana assessed as accumulation of squalene using [2-14C]acetate at 1 x 10^-5 M; assay type: functional
[2] = tested on: Trichophyton mentagrophytes; experiment: Antifungal activity against Trichophyton mentagrophytes assessed as accumulation of squalene using [2-14C]acetate at 1 x 10^-7 M; assay type: functional
[3] = tested on: Trichophyton mentagrophytes; experiment: Antifungal activity against Trichophyton mentagrophytes assessed as accumulation of squalene using [2-14C]acetate at 1 x 10^-9 M; assay type: functional
[4] = target: T1, Squalene epoxidase ERG1 (Saccharomyces cerevisiae S288c) (UniProt P32476); experiment: Inhibition of squalene epoxidase in Saccharomyces cerevisiae IFO 1346 assessed as incorporation of [2-14C]mevalonate into 4alpha-methyl sterols at 1 x 10^-5 M after 3 hr; parameters: scale not given: the % may be the effect or the level left
T1 sequence (whole entry): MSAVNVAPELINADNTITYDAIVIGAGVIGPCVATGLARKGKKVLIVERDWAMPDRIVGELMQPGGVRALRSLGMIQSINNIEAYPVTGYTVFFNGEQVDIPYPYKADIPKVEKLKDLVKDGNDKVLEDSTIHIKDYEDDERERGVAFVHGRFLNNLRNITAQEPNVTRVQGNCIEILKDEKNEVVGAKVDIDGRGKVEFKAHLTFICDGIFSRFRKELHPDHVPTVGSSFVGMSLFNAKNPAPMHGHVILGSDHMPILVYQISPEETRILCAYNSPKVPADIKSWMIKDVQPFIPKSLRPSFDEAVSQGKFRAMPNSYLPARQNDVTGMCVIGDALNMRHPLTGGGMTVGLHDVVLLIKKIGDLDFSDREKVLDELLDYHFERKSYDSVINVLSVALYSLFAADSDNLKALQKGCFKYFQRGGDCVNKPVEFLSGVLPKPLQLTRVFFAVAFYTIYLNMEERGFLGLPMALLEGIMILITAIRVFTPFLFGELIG

[5] = target: T1, Squalene epoxidase ERG1 (Saccharomyces cerevisiae S288c); experiment: Inhibition of squalene epoxidase in Saccharomyces cerevisiae IFO 1346 assessed as incorporation of [2-14C]mevalonate into 2,3-oxidosqualene at 1 x 10^-5 M after 3 hr; parameters: scale not given: the % may be the effect or the level left
[6] = target: T1, Squalene epoxidase ERG1 (Saccharomyces cerevisiae S288c); experiment: Inhibition of squalene epoxidase in Saccharomyces cerevisiae IFO 1346 assessed as incorporation of [2-14C]mevalonate into squalene at 1 x 10^-5 M after 3 hr; parameters: scale not given: the % may be the effect or the level left
[7] = target: T1, Squalene epoxidase ERG1 (Saccharomyces cerevisiae S288c); experiment: Inhibition of squalene epoxidase in Saccharomyces cerevisiae IFO 1346 assessed as incorporation of [2-14C]mevalonate into 4-desmethyl sterols at 1 x 10^-5 M after 3 hr; parameters: scale not given: the % may be the effect or the level left
[8] = tested on: Trichophyton mentagrophytes; experiment: Antifungal activity against Trichophyton mentagrophytes assessed as accumulation of squalene using [2-14C]acetate at 1 x 10^-8 M; assay type: functional
[9] = target: T1, Squalene epoxidase ERG1 (Saccharomyces cerevisiae S288c); experiment: Inhibition of squalene epoxidase in Saccharomyces cerevisiae IFO 1346 assessed as incorporation of [2-14C]mevalonate into 4,4-dimethyl sterols at 1 x 10^-5 M after 3 hr; parameters: scale not given: the % may be the effect or the level left
Botrytis cinerea [10] = experiment: Antifungal activity against Botryotinia fuckeliana assessed as accumulation of squalene using [2-14C]acetate at 1 x 10^-6 M; assay type: functional
Botrytis cinerea [11] = experiment: Antifungal activity against Botryotinia fuckeliana assessed as accumulation of squalene using [2-14C]acetate at 1 x 10^-7 M; assay type: functional
[12] = tested on: Trichophyton mentagrophytes; experiment: Antifungal activity against Trichophyton mentagrophytes; assay type: functional
Pyricularia oryzae = experiment: Antifungal activity against Magnaporthe oryzae; assay type: functional, organism-based
Botrytis cinerea [13] = experiment: Antifungal activity against Botryotinia fuckeliana; assay type: functional, organism-based
[14] = target: T1, Squalene epoxidase ERG1 (Saccharomyces cerevisiae S288c); experiment: Inhibition of squalene epoxidase in Saccharomyces cerevisiae IFO 1346 assessed as incorporation of [2-14C]mevalonate into 4,4-dimethyl sterols at 1 x 10^-4 M after 3 hr; parameters: scale not given: the % may be the effect or the level left
[15] = target: T1, Squalene epoxidase ERG1 (Saccharomyces cerevisiae S288c); experiment: Inhibition of squalene epoxidase in Saccharomyces cerevisiae IFO 1346 assessed as incorporation of [2-14C]mevalonate into squalene at 1 x 10^-4 M after 3 hr; parameters: scale not given: the % may be the effect or the level left
[16] = target: T1, Squalene epoxidase ERG1 (Saccharomyces cerevisiae S288c); experiment: Inhibition of squalene epoxidase in Saccharomyces cerevisiae IFO 1346 assessed as incorporation of [2-14C]mevalonate into 4-desmethyl sterols at 1 x 10^-4 M after 3 hr; parameters: scale not given: the % may be the effect or the level left
[17] = target: T1, Squalene epoxidase ERG1 (Saccharomyces cerevisiae S288c); experiment: Inhibition of squalene epoxidase in Saccharomyces cerevisiae IFO 1346 assessed as incorporation of [2-14C]mevalonate into 2,3-oxidosqualene at 1 x 10^-4 M after 3 hr; parameters: scale not given: the % may be the effect or the level left
[18] = target: T1, Squalene epoxidase ERG1 (Saccharomyces cerevisiae S288c); experiment: Inhibition of squalene epoxidase in Saccharomyces cerevisiae IFO 1346 assessed as incorporation of [2-14C]mevalonate into 4alpha-methyl sterols at 1 x 10^-4 M after 3 hr; parameters: scale not given: the % may be the effect or the level left
Botrytis cinerea [19] = experiment: Antifungal activity against Botryotinia fuckeliana assessed as accumulation of squalene using [2-14C]acetate at 3 x 10^-5 M; assay type: functional

Question: How did the Activity (Botrytis cinerea [1]) turn out when `Cc1cccc(N(C)C(=S)Oc2ccc3ccccc3c2)c1` [TOLNAFTATE] was run?
Answer: 79%

Question: What about the Activity [2] of the same compound?
Answer: 81.5%

Question: And the Activity [3]?
Answer: 74.2%

Question: And the Activity [4]?
Answer: 1.2%

Question: What about the Activity [5] of the same compound?
Answer: 3.5%

Question: And the Activity [6]?
Answer: 49%

Question: And the Activity [7]?
Answer: 43.6%

Question: And the Activity [8]?
Answer: 72.1%

Question: What about the Activity [9] of the same compound?
Answer: 1.9%

Question: What about the Activity (Botrytis cinerea [10]) of the same compound?
Answer: 66%

Question: And the Activity (Botrytis cinerea [11])?
Answer: 10%

Question: `Cc1cccc(C)c1-c1csc(Nc2ccc(Cl)cc2)n1` was tested. Which MIC [12] did it give?
Answer: 0.1 µg/mL (≈ 0.318 µM)

Question: And the EC50 (Pyricularia oryzae)?
Answer: 10 µg/mL (≈ 31.8 µM)

Question: What about the EC50 (Botrytis cinerea [13]) of the same compound?
Answer: 0.05 µg/mL (≈ 0.159 µM)

Question: Which results are given for `Clc1ccc(Nc2nc(-c3c(Cl)cccc3Cl)cs2)cc1`?
Answer: Activity [14]: 0.9%; Activity (Botrytis cinerea [1]): 86.7%; Activity [2]: 85.8%; Activity [15]: 80.3%; Activity [3]: 28.5%; Activity [16]: 15.3%; MIC [12]: 0.03 µg/mL (≈ 0.0843 µM); Activity [4]: 1.7%; Activity [5]: 3.6%; EC50 (Pyricularia oryzae): 0.4 µg/mL (≈ 1.12 µM); Activity [6]: 44.9%; Activity [7]: 47.2%; Activity [8]: 67.4%; Activity [9]: 1.5%; EC50 (Botrytis cinerea [13]): 0.05 µg/mL (≈ 0.141 µM); Activity (Botrytis cinerea [10]): 72.5%; Activity (Botrytis cinerea [11]): 7.5%; Activity [17]: 1.9%; Activity [18]: 0.7%

Question: Which results are given for `CCCOC/C(=N\c1ccc(Cl)cc1C(F)(F)F)n1ccnc1`?
Answer: Activity [4]: 10.3%; Activity [5]: 2.9%; Activity [6]: 19.3%; Activity [7]: 12.6%; Activity [9]: 54%

Question: `COc1ccc(Nc2nc(-c3c(Cl)cccc3Cl)cs2)cc1` was tested. Which MIC [12] did it give?
Answer: 0.1 µg/mL (≈ 0.285 µM)

Question: And the EC50 (Pyricularia oryzae)?
Answer: 10 µg/mL (≈ 28.5 µM)

Question: What about the EC50 (Botrytis cinerea [13]) of the same compound?
Answer: > 100 µg/mL

Question: For `Fc1cc(Cl)ccc1Nc1nc(-c2c(Cl)cccc2Cl)cs1`, which MIC [12] is on record?
Answer: 0.1 µg/mL (≈ 0.268 µM)

Question: What about the EC50 (Pyricularia oryzae) of the same compound?
Answer: 0.5 µg/mL (≈ 1.34 µM)

Question: What about the EC50 (Botrytis cinerea [13]) of the same compound?
Answer: 0.1 µg/mL (≈ 0.268 µM)

Question: `Clc1cccc(Cl)c1-c1csc(Nc2ccc(I)cc2)n1` was tested. Which MIC [12] did it give?
Answer: 0.03 µg/mL (≈ 0.0671 µM)

Question: What about the EC50 (Pyricularia oryzae) of the same compound?
Answer: 0.3 µg/mL (≈ 0.671 µM)

Question: And the EC50 (Botrytis cinerea [13])?
Answer: 0.2 µg/mL (≈ 0.447 µM)

Question: Which Activity (Botrytis cinerea [19]) does the source give for `Clc1ccc(Nc2nc(-c3cccc(Cl)c3)cs2)cc1` here?
Answer: 1.7%

Question: And the MIC [12]?
Answer: 3 µg/mL (≈ 9.34 µM)

Question: What about the EC50 (Pyricularia oryzae) of the same compound?
Answer: 0.3 µg/mL (≈ 0.934 µM)

Question: What about the EC50 (Botrytis cinerea [13]) of the same compound?
Answer: > 100 µg/mL

Question: How did the MIC [12] turn out when `CC(C)c1ccc(Nc2nc(-c3c(Cl)cccc3Cl)cs2)cc1` was run?
Answer: 0.3 µg/mL (≈ 0.826 µM)

Question: What about the EC50 (Pyricularia oryzae) of the same compound?
Answer: 2 µg/mL (≈ 5.5 µM)

Question: And the EC50 (Botrytis cinerea [13])?
Answer: > 100 µg/mL

Question: How did the Activity [2] turn out when `Clc1ccc(Nc2nc(-c3cccc4ccccc34)cs2)cc1` was run?
Answer: 83.1%

Question: And the Activity [3]?
Answer: 25.3%

Question: And the MIC [12]?
Answer: 0.1 µg/mL (≈ 0.297 µM)

Question: What about the EC50 (Pyricularia oryzae) of the same compound?
Answer: 2 µg/mL (≈ 5.94 µM)

Question: What about the Activity [8] of the same compound?
Answer: 11.7%

Question: What about the EC50 (Botrytis cinerea [13]) of the same compound?
Answer: 0.3 µg/mL (≈ 0.891 µM)

Question: For `FC(F)(F)c1ccc(Nc2nc(-c3c(Cl)cccc3Cl)cs2)cc1`, which MIC [12] is on record?
Answer: 0.03 µg/mL (≈ 0.0771 µM)

Question: What about the EC50 (Pyricularia oryzae) of the same compound?
Answer: 0.3 µg/mL (≈ 0.771 µM)

Question: And the EC50 (Botrytis cinerea [13])?
Answer: 0.3 µg/mL (≈ 0.771 µM)

Question: What does the source list for `CN(c1ccc(Cl)cc1)c1nc(-c2c(Cl)cccc2Cl)cs1`?
Answer: Activity (Botrytis cinerea [19]): 2%; MIC [12]: 3 µg/mL (≈ 8.11 µM); EC50 (Pyricularia oryzae): 1 µg/mL (≈ 2.7 µM); EC50 (Botrytis cinerea [13]): > 100 µg/mL

Question: Which results are given for `Clc1cccc(Cl)c1-c1csc(Nc2ccccc2)n1`?
Answer: MIC [12]: 1 µg/mL (≈ 3.11 µM); EC50 (Pyricularia oryzae): 2 µg/mL (≈ 6.23 µM); EC50 (Botrytis cinerea [13]): > 100 µg/mL

Question: `Cc1ccc(Nc2nc(-c3c(Cl)cccc3Cl)cs2)cc1` was tested. Which MIC [12] did it give?
Answer: 0.1 µg/mL (≈ 0.298 µM)

Question: What about the EC50 (Pyricularia oryzae) of the same compound?
Answer: 3 µg/mL (≈ 8.95 µM)

Question: And the EC50 (Botrytis cinerea [13])?
Answer: 0.3 µg/mL (≈ 0.895 µM)

Question: What does the source list for `Clc1cccc(Nc2nc(-c3c(Cl)cccc3Cl)cs2)c1`?
Answer: Activity (Botrytis cinerea [1]): 4%; MIC [12]: 0.1 µg/mL (≈ 0.281 µM); EC50 (Pyricularia oryzae): 10 µg/mL (≈ 28.1 µM); EC50 (Botrytis cinerea [13]): > 100 µg/mL

Question: `Clc1ccc(Nc2nc(-c3c(Cl)cccc3Cl)cs2)cc1Cl` was tested. Which MIC [12] did it give?
Answer: 0.1 µg/mL (≈ 0.256 µM)

Question: And the EC50 (Pyricularia oryzae)?
Answer: 1 µg/mL (≈ 2.56 µM)

Question: What about the EC50 (Botrytis cinerea [13]) of the same compound?
Answer: 1 µg/mL (≈ 2.56 µM)

Question: With `CCCc1ccc(Nc2nc(-c3c(Cl)cccc3Cl)cs2)cc1` as the compound, how does the MIC [12] read?
Answer: 0.1 µg/mL (≈ 0.275 µM)

Question: And the EC50 (Pyricularia oryzae)?
Answer: 30 µg/mL (≈ 82.6 µM)

Question: What about the EC50 (Botrytis cinerea [13]) of the same compound?
Answer: > 100 µg/mL

Question: `C[S+]([O-])c1ccc(Nc2nc(-c3c(Cl)cccc3Cl)cs2)cc1` (configuration not stated) was tested. Which MIC [12] did it give?
Answer: 30 µg/mL (≈ 78.3 µM)

Question: And the EC50 (Pyricularia oryzae)?
Answer: 2 µg/mL (≈ 5.22 µM)

Question: And the EC50 (Botrytis cinerea [13])?
Answer: > 100 µg/mL

Question: Which MIC [12] does the source give for `O=[N+]([O-])c1ccc(Nc2nc(-c3c(Cl)cccc3Cl)cs2)cc1` here?
Answer: 30 µg/mL (≈ 81.9 µM)

Question: And the EC50 (Pyricularia oryzae)?
Answer: > 100 µg/mL

Question: What about the EC50 (Botrytis cinerea [13]) of the same compound?
Answer: > 100 µg/mL

Question: Which results are given for `Fc1cccc(F)c1-c1csc(Nc2ccc(Cl)cc2)n1`?
Answer: MIC [12]: 0.3 µg/mL (≈ 0.929 µM); EC50 (Pyricularia oryzae): 1 µg/mL (≈ 3.1 µM); EC50 (Botrytis cinerea [13]): > 100 µg/mL

— ChEMBL document CHEMBL3046425, “Synthesis of Antifungal 2-Anilino-4-phenylthiazoles and Their Inhibitory Activities on Sterol Biosynthesis” (J Pestic Sci, 2001)
